Experimental data as given in patent US5344926A, “Process for producing staurosporine derivatives” (Kyowa Hakko Kogyo Co., Ltd., priority 1992, dated 1994).
In brackets after ≈: the same amount, converted by molar mass. Several values for one entry are separate records, joined by “and”; a condition that tells them apart may be missing. Equal values may be shown once.

What was measured:
[1] = test system: HeLa S3 cells; test: Growth Inhibition Test on HeLa S3 Cells; type: cell-based; conditions: Homo sapiens, 1 h exposure, then 72 h incubation, Neutral Red, read-out: IC50 (cell growth inhibition)
Protocol: Growth Inhibition Test on HeLa S3 Cells
HaLa S3 cells were suspended in an MEM medium containing 10% fetal calf serum and 2 mM glutamine at a concentration of 3×10^4 cells/ml, and 0.1 ml of the cell suspension was put into each well of a 96-well microtiter plate.
After culturing at 37° C. overnight in a carbon dioxide gas incubator, 0.05 ml of a test sample appropriately diluted with the medium was added to each well. The cells were further cultured for one hour in the carbon dioxide gas incubator and the culture supernatant was removed. The residue was washed once with a phosphate buffer saline [PBS(-)] and 0.1 ml of a fresh medium was added to each well, and the cells were further incubated at 37° C. for 72 hours in the carbon dioxide gas incubator. After removal of the supernatant, 0.1 ml of culture medium containing 0.02% Neutral Red was added to each well, and the cells were further incubated at 37° C. for one hour in the carbon dioxide gas incubator to stain the cells. After removal of the culture supernatant, each well was washed once with a physiological saline, and the dye was extracted with 0.001N HCl/30% methanol. Absorbance of the extract at 550 nm was measured with a microplate reader. The cell growth inhibition percentage was calculated according to the following formula from the absorbance of the extract of the cells treated with the test compound in various concentrations and that of intact cells. [formula]
From the cell growth inhibition percentage thus obtained, the concentration of the test compound which inhibits cell growth by 50% (IC50) was determined.

[2] = test system: Protein kinase C; test: Protein Kinase C Inhibitory Activity (crude enzyme partially purified from rat brain); conditions: for selective inhibitory activity on protein kinase C, compared with UCN-01: PKC vs PKA; for IC50 PKC: pH 7.5, 30° C., 3 minutes; for PKA/PKC: ratio of IC50 PKA to IC50 PKC
Protocol: (1) Protein Kinase C Inhibitory Activity
Protein kinase C inhibitory activity (PKC) was measured by the method of Kikkawa, et al. (Journal of Biological Chemistry, 257, 13341 (1982)].
That is, 10 μl of a test solution containing UCN-01, Compound No. 1-α or Compound No. 1-β was added to 250 μl of a solution containing 2.5 μmoles of magnesium acetate, 50 μg of Histone Type IIS (manufactured by Sigma Co., Ltd.), 20 μg of phosphatidyl serine, 0.8 μg of diolein, 25 nmoles of CaCl2, 5 μg of crude enzyme (partically purified from rat brain according to the method of Kikkawa, et al.) and 5 μmoles of Tris-hydrochloride buffer (pH 7.5), followed by incubation at 30° C. for 3 minutes. Then, phosphorylation was initiated by addition of 1.25 nmoles of [γ-^32 p]ATP(5 to 10×10^3 cpm/nmole), followed by incubation at 30° C. for 3 minutes. The reaction was stopped by adding 25% trichloroacetic acid (TCA), and the reaction solution was filtered through a cellulose acetate membrane (pore size of 0.45 μm) (manufactured by Toyo Filter Paper Co., Ltd.). After the membrane was washed four times with 5% TCA, radioactivity remaining on the membrane was measured. As a control, the same procedure as above was repeated without addition of the test solution and radioactivity was likewise measured. A concentration of the test solution showing 50% inhibition as compared with the control was expressed as IC50.

[3] = biological target: T1, Protein kinase A (Bos taurus, UniProt P00517); test: Protein Kinase A Inhibitory Activity (crude enzyme partially purified from calf heart); type: biochemical; conditions: pH 6.8
T1 construct: partially purified from calf heart; from tissue; host or cells: calf heart, crude enzyme, partially purified
Protocol: (2) Protein Kinase A Inhibitory Activity
Protein kinase A inhibitory activity (PKA) was measured according to the method of Kuo, et al. [Biochemistry, 64, 1349 (1969)].
Subsequent procedures were conducted in a manner similar to the case of measuring protein kinase C inhibitory activity described above to determine IC50.

[4] = test system: platelets; test: Platelet increasing activity in Balb/c mice; type: in vivo; conditions: 20 mg/kg i.p. once a day for 5 days; for Number of platelets, individual mouse: 20 mg/kg; for Number of platelets (mean): mean of six mice
Protocol: Platelet increasing activity of Compound (I-1) was examined. Compound No. 1-α obtained in Example 13 was suspended in 0.3% carboxymethylcellulose aqueous solution containing 5% Tween 80. 0.2 ml of the suspension was intraperitoneally administered to six Balb/c mice (male, aged 7 weeks) at a dosage of 20 mg/kg once a day for 5 days. The blood (20 μl) was collected from the ophthalmic […] at the times, just before the test compound administration (Day 0), the 7th day (Day 7), the 14th day (Day 14), the 17th day (Day 17) and the 28th day (Day 28). The number of platelets was counted by a microcellcounter.

[5] = Day 0 (just before administration)

COC1C(N(C)CCCC(=O)O)CC2OC1(C)n1c3ccccc3c3c4c(c5c6ccccc6n2c5c31)C(=O)NC4O (stereo not drawn) [Compound No. 3]
IC50 [1]: 4600 nM

COC1C(N(C)C(=O)CN(C)C)CC2OC1(C)n1c3ccccc3c3c4c(c5c6ccccc6n2c5c31)C(=O)NC4O (stereo not drawn) [Compound No. 7]
IC50 [1]: 1500 nM

COC1C(N(C)CCO)CC2OC1(C)n1c3ccccc3c3c4c(c5c6ccccc6n2c5c31)C(=O)NC4O (stereo not drawn) [Compound No. 1]
IC50 [1]: 2200 nM

COC1C(N(C)CCO)CC2OC1(C)n1c3ccccc3c3c4c(c5c6ccccc6n2c5c31)C(=O)NC4O (stereo not drawn) [Compound No. 1-β]
selective inhibitory activity on protein kinase C, compared with UCN-01 [2]: have a selective inhibitory activity on protein kinase C, compared with UCN-01
IC50 PKC [2]: 19 ng/mL (≈ 36.1 nM)
PKA/PKC [2]: 20
IC50 [3]: 703 nM

COC1C(N(C)CC(O)CO)CC2OC1(C)n1c3ccccc3c3c4c(c5c6ccccc6n2c5c31)C(=O)NC4O (stereo not drawn) [Compound No. 2]
IC50 [1]: 1900 nM

CN[C@@H]1C[C@H]2O[C@@](C)([C@@H]1OC)n1c3ccccc3c3c4c(c5c6ccccc6n2c5c31)C(=O)N[C@@H]4O [UCN-01, reference compound]
IC50 PKC [2]: 2 ng/mL (≈ 4.14 nM)
PKA/PKC [2]: 10

COC1C(N(C)C(=O)CN2CCOCC2)CC2OC1(C)n1c3ccccc3c3c4c(c5c6ccccc6n2c5c31)C(=O)NC4O (stereo not drawn) [Compound No. 6]
IC50 [1]: 2200 nM

COC1C(N(C)CCO)CC2OC1(C)n1c3ccccc3c3c4c(c5c6ccccc6n2c5c31)C(=O)NC4O (stereo not drawn) [Compound No. 1-α]
selective inhibitory activity on protein kinase C, compared with UCN-01 [2]: have a selective inhibitory activity on protein kinase C, compared with UCN-01
IC50 PKC [2]: 2.2 ng/mL (≈ 4.18 nM)
PKA/PKC [2]: 118
IC50 [3]: 494 nM
Number of platelets, relative value ([4]; Day 0 (= 100)): 100%
Number of platelets, individual mouse [4, 5]: 81.8 and 89.6 and 75.0 and 89.7 and 97.0 and 86.5
Number of platelets (mean) [4, 5]: 86.6
Number of platelets, relative value ([4]; Day 7, relative to Day 0): 156.4%
Number of platelets, individual mouse ([4]; Day 7): 128.3 and 119.2 and 130.1 and 153.8 and 141.0 and 140.1
Number of platelets (mean) ([4]; Day 7): 135.4
Number of platelets, relative value ([4]; Day 14, relative to Day 0): 139.8%
Number of platelets, individual mouse ([4]; Day 14): 113.7 and 122.5 and 118.8 and 145.9 and 121.2 and 101.7
Number of platelets (mean) ([4]; Day 14): 121.1
Number of platelets, relative value ([4]; Day 17, relative to Day 0): 146.7%
Number of platelets, individual mouse ([4]; Day 17): 115.0 and 113.6 and 111.9 and 159.1 and 137.1 and 125.5
Number of platelets (mean) ([4]; Day 17): 127.0
Number of platelets, relative value ([4]; Day 28, relative to Day 0): 135.1%
Number of platelets, individual mouse ([4]; Day 28): 117.3 and 123.5 and 119.0 and 113.7 and 105.8 and 125.3
Number of platelets (mean) ([4]; Day 28): 117.4
